Experiment in all cases: Growth inhibition of CDK9-positive tumor cell line in vitro
Holding throughout (assay type): cell-based

One experiment concerns 8305C. As to conditions: Human thyroid cancer, read-out: Inhibitory activity (IC50) on growth in vitro, 8305C. The procedure: (§1) Measurement of the Inhibitory Activity of the Present Compound on the Growth of Various Types of CDK9-Positive Tumor Cell Lines In Vitro
(§2) The inventors selected representative CDK9-positive tumor cell lines for further determination of the compound activity. All cell lines used came from ATCC, JCRB, DSMZ and Chinese Academy of Sciences Cell Bank (ZK). Cell culture condition and method were based on the requirements of each cell line. No more than 3 passages were carried out in each culture in vitro. Monoclonal purification and STR identification of the cell line were conducted if necessary.

For another experiment, the system named is AGS. As to conditions: Human stomach cancer, read-out: Inhibitory activity (IC50) on growth in vitro, AGS. The procedure:
as §1, §2

The test system of a further experiment is BT-474. The conditions noted are these: Human breast cancer, read-out: Inhibitory activity (IC50) on growth in vitro, BT-474. The procedure:
as §1, §2

The next experiment concerns BT-549. The conditions noted are these: Human breast cancer, read-out: Inhibitory activity (IC50) on growth in vitro, BT-549. The procedure:
as §1, §2

The next experiment has as its system Colo205. As to conditions: COLO 205, Human intestinal cancer, read-out: Inhibitory activity (IC50) on growth in vitro, Colo205. The procedure: as §1, §2
The test system of a further experiment is HCT-116. The conditions noted are these: Human intestinal cancer, read-out: Inhibitory activity (IC50) on growth in vitro, HCT-116. Here is the method:
as §1, §2

The next experiment has as its system HuCCT-1. As to conditions: Human cholangiocarcinoma, read-out: Inhibitory activity (IC50) on growth in vitro, HuCCT-1. The procedure: as §1, §2
In the next experiment the test system is JIMT-1. As to conditions: Human breast cancer, read-out: Inhibitory activity (IC50) on growth in vitro, JIMT-1. The procedure:
as §1, §2

The test system of the next experiment is KG-1. As to conditions: Human acute myeloid leukemia, read-out: Inhibitory activity (IC50) on growth in vitro, KG-1. The procedure: as §1, §2
For the next experiment, the system named is KHM-5M. As to conditions: read-out: Inhibitory activity (IC50) on growth in vitro, Human thyroid cancer. The procedure:
as §1, §2

Another experiment deals with MX-1. As to conditions: MX1, Human breast cancer, read-out: Inhibitory activity (IC50) on growth in vitro, MX-1. Here is the method: as §1, §2
For the next experiment, the system named is NCI-H1581. The conditions noted are these: Human lung cancer, read-out: Inhibitory activity (IC50) on growth in vitro, NCI-H1581. Here is the method:
as §1, §2

The subject of a further experiment is NCI-H1703. The conditions noted are these: Human lung cancer, read-out: Inhibitory activity (IC50) on growth in vitro, NCI-H1703. The procedure:
as §1, §2

Another experiment relates to NCI-H1975. As to conditions: Human lung cancer, read-out: Inhibitory activity (IC50) on growth in vitro, NCI-H1975. Here is the method: as §1, §2
Another experiment concerns NCI-H358. The conditions noted are these: Human lung cancer, read-out: Inhibitory activity (IC50) on growth in vitro, NCI-H358. The procedure:
as §1, §2

The subject of the next experiment is NCI-H460. The conditions noted are these: Human lung cancer, read-out: Inhibitory activity (IC50) on growth in vitro, NCI-H460. Here is the method:
as §1, §2

A further experiment relates to NCI-N87. As to conditions: Human stomach cancer, read-out: Inhibitory activity (IC50) on growth in vitro, NCI-N87. The procedure: as §1, §2
The next experiment has as its system PC-9. As to conditions: Human lung cancer, read-out: Inhibitory activity (IC50) on growth in vitro, PC-9. The procedure: as §1, §2
The next experiment has as its system SK-BR-3. The conditions noted are these: Human breast cancer, read-out: Inhibitory activity (IC50) on growth in vitro, SK-BR-3. Here is the method: as §1, §2
Another experiment deals with MDA-MB-436. The conditions noted are these: Human breast cancer, read-out: Inhibitory activity (IC50) on growth in vitro, MDA-MB-436. The procedure: as §1, §2
In a further experiment the test system is MDA-MB-453. The conditions noted are these: Human breast cancer, read-out: Inhibitory activity (IC50) on growth in vitro, MDA-MB-453. The procedure:
as §1, §2

A further experiment deals with NCI-H1993. As to conditions: Human lung cancer, read-out: Inhibitory activity (IC50) on growth in vitro, NCI-H1993. The procedure: as §1, §2
The next experiment relates to AN3-CA. As to conditions: Human endometrial cancer, read-out: Inhibitory activity (IC50) on growth in vitro, AN3-CA. The text has this:
Test Example 3. Measurement of the Inhibitory Activity of the Present Compound on the Growth of Various Types of CDK9-Positive Tumor Cell Lines In Vitro
Tumor cell line is an effective cell model for studying the inhibitory activity of a drug on tumor growth in vitro. The inventors selected representative CDK9-positive tumor cell lines for further determination of the compound activity. All cell lines used came from ATCC, JCRB, DSMZ and Chinese Academy of Sciences Cell Bank (ZK). Cell culture condition and method were based on the requirements of each cell line. No more than 3 passages were carried out in each culture in vitro. Monoclonal purification and STR identification of the cell line were conducted if necessary.
Drug treatment, MTT assay and IC50 calculation were performed in accordance with Test Example 1.

For the compound `Cc1cc(Nc2ncc(Cl)c(-n3cc(C(N)=O)c4ccccc43)n2)ccc1N1CCN(C(C)C)CC1` [Compound 60, 1-{5-chloro-2-[4-(4-isopropyl-piperazin-1-yl)-3-methyl-phenylamino]-pyrimidin-4-yl}-1H-indole-3-carboxamide], the IC50 in the experiment with 8305C was 10 to 100 nM; in the experiment with AGS, 100 to 1000 nM; in the experiment on BT-474, 10 to 100 nM; in the experiment with BT-549, 10 to 100 nM; with Colo205 it was 100 to 1000 nM; in the experiment with HCT-116 it was 100 to 1000 nM. Also, the IC50 in the experiment with HuCCT-1 is 100 to 1000 nM; in the experiment with JIMT-1, 10 to 100 nM; in the experiment with KG-1 it was 10 to 100 nM; in the experiment with KHM-5M, 10 to 100 nM; in the experiment on MX-1, 1 to 10 nM; with NCI-H1581, 10 to 100 nM. Also, the IC50 in the experiment on NCI-H1703 lay in the range of 10 to 100 nM; in the experiment on NCI-H1975 it was 100 to 1000 nM; in the experiment on NCI-H358, 100 to 1000 nM; in the experiment with NCI-H460, 100 to 1000 nM; in the experiment with NCI-N87 it was 100 to 1000 nM; in the experiment with PC-9, 100 to 1000 nM. Also, in the experiment on SK-BR-3, the IC50 lay within 1 to 10 nM.
On to `CCN1CCN(c2cccc(Nc3ncc(F)c(-n4cc(C(N)=O)c5cc(F)ccc54)n3)c2)CC1` [Compound 161, 1-{2-[3-(4-ethyl-piperazin-1-yl)-phenylamino]-5-fluoro-pyrimidin-4-yl}-5-fluoro-1H-indole-3-carboxamide], for which the IC50 in the experiment with 8305C was 1 to 10 nM; in the experiment on AGS it was 1 to 10 nM; with BT-474, less than 1 nM; in the experiment with BT-549 it was less than 1 nM; in the experiment with Colo205, 1 to 10 nM; in the experiment on HCT-116, 1 to 10 nM. In addition, the IC50 was 1 to 10 nM in the experiment with HuCCT-1; less than 1 nM in the experiment with JIMT-1; 1 to 10 nM in the experiment on KG-1; 1 to 10 nM in the experiment with KHM-5M; less than 1 nM in the experiment with MDA-MB-436; less than 1 nM with MDA-MB-453. Moreover, the IC50 in the experiment with MX-1 was less than 1 nM; in the experiment with NCI-H1581, less than 1 nM; in the experiment on NCI-H1703, less than 1 nM; with NCI-H1975, 1 to 10 nM; in the experiment on NCI-H1993 it was 10 to 100 nM; in the experiment on NCI-H358 it was 1 to 10 nM. Moreover, the IC50 in the experiment with NCI-H460 was 1 to 10 nM; in the experiment on NCI-N87, 1 to 10 nM; with PC-9, 1 to 10 nM; in the experiment on SK-BR-3, less than 1 nM.
For the compound `CCN1CCN(c2cccc(Nc3ncc(F)c(-n4cc(C(N)=O)c5cc(OC)ccc54)n3)c2)CC1` [Compound 152, 1-{2-[3-(4-ethyl-piperazin-1-yl)-phenylamino]-5-fluoro-pyrimidin-4-yl}-5-methoxy-1H-indole-3-carboxamide], the IC50 in the experiment with 8305C is 1 to 10 nM; with AGS, 1 to 10 nM; with BT-474, less than 1 nM; in the experiment on BT-549, less than 1 nM; with Colo205, 1 to 10 nM; with HCT-116, 1 to 10 nM. Further, the IC50 in the experiment with HuCCT-1 is 1 to 10 nM; with JIMT-1, less than 1 nM; in the experiment with KG-1 it was 1 to 10 nM; in the experiment on KHM-5M, 1 to 10 nM; with MDA-MB-436 it was less than 1 nM; in the experiment with MDA-MB-453, less than 1 nM. Besides, the IC50 was less than 1 nM with MX-1; less than 1 nM in the experiment on NCI-H1581; less than 1 nM in the experiment with NCI-H1703; 1 to 10 nM in the experiment with NCI-H1975; 1 to 10 nM with NCI-H1993; 1 to 10 nM in the experiment on NCI-H358. Moreover, the IC50 with NCI-H460 is 1 to 10 nM; in the experiment with NCI-N87, 1 to 10 nM; in the experiment with PC-9, 1 to 10 nM; in the experiment with SK-BR-3 it was less than 1 nM; in the experiment with AN3-CA it was less than 1 nM.
Regarding `CC(C)N1CCN(c2cccc(Nc3ncc(F)c(-n4cc(C(N)=O)c5ccccc54)n3)c2)CC1` [Compound 144, 1-{5-fluoro-2-[3-(4-isopropyl-piperazin-1-yl)-phenylamino]-pyrimidin-4-yl}-1H-indole-3-carboxamide], the IC50 with 8305C is less than 1 nM; in the experiment with AGS, 1 to 10 nM; with BT-474, less than 1 nM; in the experiment on BT-549, less than 1 nM; in the experiment on Colo205 it was 1 to 10 nM; in the experiment on HCT-116, 1 to 10 nM. Further, the IC50 is 1 to 10 nM with HuCCT-1; less than 1 nM with JIMT-1; less than 1 nM in the experiment on KG-1; less than 1 nM in the experiment on KHM-5M; less than 1 nM in the experiment with MDA-MB-436; less than 1 nM in the experiment on MDA-MB-453. Moreover, the IC50 with MX-1 was less than 1 nM; in the experiment on NCI-H1581, less than 1 nM; with NCI-H1703, less than 1 nM; with NCI-H1975 it was 1 to 10 nM; in the experiment on NCI-H1993 it was 1 to 10 nM; in the experiment on NCI-H358, 1 to 10 nM. Also, the IC50 in the experiment with NCI-H460 is 1 to 10 nM; in the experiment on NCI-N87 it was 1 to 10 nM; in the experiment on PC-9, 1 to 10 nM; with SK-BR-3 it was less than 1 nM; in the experiment on AN3-CA it was less than 1 nM.
Consider `NC(=O)c1cn(-c2nc(Nc3cccc(N4CCN(C5CCOCC5)CC4)c3)ncc2F)c2ccccc12` [Compound 140, 1-(5-fluoro-2-{3-[4-(tetrahydro-pyran-4-yl)-piperazin-1-yl]-phenylamino}-pyrimidin-4-yl)-1H-indole-3-carboxamide], for which the IC50 is less than 1 nM in the experiment with 8305C; 1 to 10 nM with AGS; less than 1 nM in the experiment on BT-474; less than 1 nM in the experiment on BT-549; 1 to 10 nM with Colo205; 1 to 10 nM in the experiment with HCT-116. In addition, the IC50 with HuCCT-1 is 1 to 10 nM; with JIMT-1, less than 1 nM; with KG-1 it was less than 1 nM; in the experiment with KHM-5M, less than 1 nM; in the experiment on MDA-MB-436, less than 1 nM; in the experiment on MDA-MB-453, less than 1 nM. The IC50 with MX-1 was less than 1 nM; in the experiment with NCI-H1581, less than 1 nM; in the experiment on NCI-H1703 it was less than 1 nM; with NCI-H1975, 1 to 10 nM; in the experiment with NCI-H1993, 1 to 10 nM; in the experiment on NCI-H358, 1 to 10 nM. The IC50 with NCI-H460 is 1 to 10 nM; in the experiment with NCI-N87, 1 to 10 nM; with PC-9, 1 to 10 nM; in the experiment on SK-BR-3 it was less than 1 nM; in the experiment on AN3-CA it was less than 1 nM.

The record behind these values is US20210101881A1 (Ancureall Pharmaceutical (Shanghai) Co., Ltd., priority 2018, published 2021).
